Source: patent US11326167B2, “Methods and compositions for treating atherosclerosis” (YALE UNIVERSITY, priority 2016, dated 2022)

Key:
[1] = test system: Apoe^−/− and Frs2α^iECKO/Apoe^−/− mice; assay: Tolerability of 7C1-let-7 injections: body weight, blood counts, serum lipids, organs, liver function, skin; format: in vivo, mouse; details: after 16 weeks on high cholesterol diet
Source text: FIGS. 24A-24E are a series of graphs showing that 7C1-let-7 mimics treatment have no effect on mouse body weight and serum lipid profile. FIG. 24A: Time frame of gene inactivation and 7C1 lipid nanoparticle injections. FIG. 24B: Serum triglycerides, total cholesterol, and HDL-C levels from Apoe^−/− and Frs2^iECKO/Apoe^−/− mice after 16 weeks on a high cholesterol diet (NS: not significant by one-way ANOVA with Newman-Keuls post-hoc test). FIG. 24C: Individual body weights in each group were measured every week. FIGS. 24D-24E: qPCR analysis of let-7b and Tgfbr1 expression in lung endothelial cells after treatment with 7C1-let-7 particles. All data shown as mean±s.d. (*p<0.05; **p<0.01; ***p<0.001 compared with Luciferase; one-way ANOVA with Newman-Keuls post hoc test for multiple comparison correction). N=4-6 mice per group.
Serum was obtained through centrifugation of the blood for 2 min at 10,000 rpm at 4° C. and stored at −80° C. until each assay was performed. […]
A decline in let-7 miRs expression has been previously linked to activation of TGFβ signaling (Chen et al., 2012, Cell reports 2: 1684-1696; Chen et al, 2014 Science signaling 7, ra90). […] Measurements of the following were taken from mice in each group: body weight, complete blood counts, skin pictures, serum lipid profiles, organ weight, and whole aorta oil red-O staining and quantification (FIGS. 24C, 25, 23, 24B, 27, and 29).

[2] = test system: primary human aortic smooth muscle cells (HASMCs); assay: Immunoblot of p-Smad2 and SM-calponin in control and FRS2α knockdown HASMCs treated with SB431542; format: cell-based; details: SB431542 10 μM
Source text: FIGS. 2A-2F are images and plots showing that FRS2α knockdown increases smooth muscle marker gene expression via the TGFβ pathway in primary human aortic smooth muscle cells (HASMCs). […] Blots are representative of four independent experiments. […] R-actin was used for sample loading normalization. […] FIGS. 2D-2F show immunoblots of smooth muscle markers, phosphorylated Smad2 (p-Smad2), and TGFβR1 expression in control and FRS2α knockdown HASMCs treated with SB431542 ([…]), TGFβR2 or Smad2 shRNA lentiviruses. Blots are representative of three independent experiments.
The TGFβR1 kinase inhibitor SB431542 (Sigma S4317) was reconstituted in DMSO (Sigma D2650) and used at a final concentration of 10 μM in cell culture.
Mouse Tgfbr1 and Tgfbr2 shRNA lentiviral constructs were purchased from Sigma. Human FGFR1, human Smad2 and human TGFβR2 shRNA lentiviral constructs were purchased from Sigma and human FRS2α shRNA lentiviral construct was purchased from Open Biosystems. For the production of shRNA lentivirus, 3.7 μg of A8.2, 0.2 μg of VSVG, and 2.1 μg of pLKO.1 carrying the control, FGFR1, FRS2α, Smad2, or TGFβR2 shRNA were co-transfected into 293T cells using X-tremeGENE 9 DNA Transfection Reagent (Roche 06365787001). Forty-eight hours later the medium was harvested, cleared by 0.45 μm filter (PALL Life Sciences PN4184), mixed with polybrene (5 μg/ml) (Sigma H9268), and applied to cells. […]

[3] = test system: Apoe^−/− mice; assay: Oil Red O atherosclerotic lesion area after 7C1-siTgfbr and/or rapamycin, 4 months of high fat diet; format: in vivo, mouse
Source text: FIGS. 45A-45B are a graph and a series of images showing that 7C1-siTgfbr and rapamycin suppress atherosclerosis lesion development in Apoe^−/− mice after 4 months of high fat diet. FIG. 45A: Time frame of 7C1-siTgfbr1/Tgfbr2 lipid nanoparticle and rapamycin injections. FIG. 45B: Representative photomicrographs of Oil Red O-stained atherosclerotic lesions in PBS, 7C1-siLuciferase, DMSO, Rapamycin, or 7C1-siTgfbr treated mice.
FIG. 46 is a histogram illustrating the quantification of atherosclerotic lesions from FIG. 45B. Lesion area quantification. % Lesion area is the lesion area/total area of aorta. All data shown as mean±SD. (***p<0.001; one-way ANOVA with Newman-Keuls post hoc test for multiple comparison correction).
Apoe^−/− and Frs2^SMCKO/Apoe^−/− male mice were fed a Western diet (40% kcal % Fat, 1.25% Cholesterol, 0% Cholic Acid) for 8 or 16 weeks (Research Diets, product #D12108) starting at the age of 8 weeks. After 8 or 16 weeks of being fed a high-fat diet, mice were anesthetized and euthanized. […] The lesions located in the aorta, aortic roots and abdominal aorta were analyzed using Oil Red 0 staining. […] The surface lesion area was quantified with ImageJ software (NIH). […]
FIG. 46 is a histogram illustrating the quantification of atherosclerotic lesions from FIG. 45B. […]

**Q.** With “mi-let-7bH: heavily 2′-O-methyl modified double stranded let-7b miRNA mimic, 5p UGAGGuAGuAGGUUGUGUGGUU, 3p cuAuAcAAccuAcuGccuuccc” as the compound, how does the “serum triglycerides, total cholesterol and HDL cholesterol levels (serum lipid profile)” value [1] read?
**A.** The value was “similar”.

**Q.** Which “serum triglycerides, total cholesterol and HDL cholesterol levels (serum lipid profile)” value [1] does the source give for “mi-let-7bL: lightly 2′-O-methyl modified double stranded let-7b miRNA mimic, 5p UGAGGuAGuAGGUUGUGUGGUU, 3p CuAuAcAACCuACUGCCUUCCC” here?
**A.** Its value is “similar”.

**Q.** For `NC(=O)c1ccc(-c2nc(-c3ccc4c(c3)OCO4)c(-c3ccccn3)[nH]2)cc1` [SB431542], which “FRS2α knockdown-induced increase in SM-calponin levels” value [2] is on record?
**A.** Its value is “effectively attenuated”.

**Q.** What about the “FRS2α knockdown-induced increase in p-Smad2 levels” value [2] of the same compound?
**A.** The value was “effectively attenuated”.

**Q.** `CO[C@H]1C[C@@H]2CC[C@@H](C)[C@@](O)(O2)C(=O)C(=O)N2CCCC[C@H]2C(=O)O[C@H]([C@H](C)C[C@@H]2CC[C@@H](O)[C@H](OC)C2)CC(=O)[C@H](C)/C=C(\C)[C@@H](O)[C@@H](OC)C(=O)[C@H](C)C[C@H](C)/C=C/C=C/C=C/1C` [rapamycin] was tested. Which “reduction in atherosclerotic lesion (% lesion area = lesion area/total area of aorta)” value [3] did it give?
**A.** The value was 58%.
